According to article PMC3306499 (ACS Chemical Biology, 2012):
Structures can show the parent of a compound that is named as a salt. Where two headings read alike, the source gives them in different places.

What was measured:
human A3G (APOBEC3G) = human A3G (APOBEC3G) (Homo sapiens, UniProt Q9HC16); assay: fluorescence-based ssDNA cytosine deaminase assay, A3G; assay type: biochemical
HIV-1 RNase H = HIV-1 RNase H (Human immunodeficiency virus type 1 group M subtype B, UniProt P04585); assay: HIV-1 RNase H inhibition assay; assay type: biochemical
[1] = molecular target: E. coli uracil DNA glycosylase (UDG) (Escherichia coli, UniProt P12295); assay: UDG assay; assay type: biochemical
HIV-1 integrase = HIV-1 integrase (Human immunodeficiency virus type 1 group M subtype B, UniProt P04585); assay: concerted HIV-1 integration assay; assay type: biochemical
human A3A (APOBEC3A) = human A3A (APOBEC3A) (Homo sapiens, UniProt P31941); assay: fluorescence-based ssDNA cytosine deaminase assay, A3A; assay type: biochemical
HIV RNase H = details: read-out: IC50 Values RNase H, cited from earlier work
[2] = tested on: A3A-loop 6 (C321 loop of A3G swapped into A3A); assay: deaminase assay with A3A-loop 6 swap mutant; assay type: biochemical, human; details: 50 μM compound
A3G-ssDNA complex = A3G-ssDNA complex (Homo sapiens, UniProt Q9HC16); assay: EMSA of A3G-ssDNA complex formation; assay type: binding; details: 0.64 μM A3G, 0.08 μM ssDNA, 50 μM compound, dose response 2, 5, 10 μM
[3] = read-out: IC50 Values A3G, dose response, purified full-length A3G-mycHis
[4] = read-out: IC50 Values RNase H, A3G inhibitors, this study
[5] = read-out: IC50 Values UDG, no deaminase, uracil ssDNA substrate
[6] = read-out: IC50 Values A3A, dose response, purified A3A-mycHis

Sequence of human A3G (APOBEC3G) (Q9HC16 whole entry): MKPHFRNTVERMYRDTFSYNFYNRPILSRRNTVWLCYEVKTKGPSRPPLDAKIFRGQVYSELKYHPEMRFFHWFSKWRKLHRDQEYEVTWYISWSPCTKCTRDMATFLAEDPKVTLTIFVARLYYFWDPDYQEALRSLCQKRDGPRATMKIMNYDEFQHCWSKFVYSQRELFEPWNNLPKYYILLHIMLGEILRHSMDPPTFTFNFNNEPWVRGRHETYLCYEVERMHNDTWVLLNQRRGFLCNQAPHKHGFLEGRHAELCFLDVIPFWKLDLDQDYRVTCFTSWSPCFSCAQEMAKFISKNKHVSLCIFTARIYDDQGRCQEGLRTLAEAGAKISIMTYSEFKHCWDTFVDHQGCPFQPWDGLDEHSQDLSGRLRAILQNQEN
Sequence of E. coli uracil DNA glycosylase (UDG) (P12295 whole entry): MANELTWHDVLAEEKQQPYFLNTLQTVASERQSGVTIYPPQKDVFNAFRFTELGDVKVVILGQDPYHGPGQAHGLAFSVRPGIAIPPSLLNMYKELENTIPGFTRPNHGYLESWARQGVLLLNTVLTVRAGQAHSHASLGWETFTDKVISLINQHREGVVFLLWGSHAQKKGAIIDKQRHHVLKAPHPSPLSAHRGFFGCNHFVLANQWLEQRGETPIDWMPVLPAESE
Sequence of human A3A (APOBEC3A) (P31941 whole entry): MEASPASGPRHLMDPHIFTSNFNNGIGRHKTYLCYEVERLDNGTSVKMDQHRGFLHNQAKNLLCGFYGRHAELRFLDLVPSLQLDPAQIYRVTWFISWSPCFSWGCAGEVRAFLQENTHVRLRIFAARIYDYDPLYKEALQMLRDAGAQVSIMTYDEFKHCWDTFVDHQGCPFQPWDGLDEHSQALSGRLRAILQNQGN
Sequence of A3G-ssDNA complex (Q9HC16 whole entry, one chain of several): as the sequence (Q9HC16 whole entry) above

Oc1cc2c(cc1O)[C@H]1c3ccccc3CN[C@@H]1CC2 (racemic) [MN8, Dihydrexidine hydrochloride]
IC50 (human A3G (APOBEC3G)): 0.59 µM
IC50 (HIV-1 RNase H): > 25 µM
IC50 [1]: > 200 µM
IC50 (HIV-1 integrase): > 25 µM
IC50 (human A3A (APOBEC3A)): > 200 µM

NC1CCc2cc(O)c(O)cc2C1 (racemic) [MN13, (±)-2-Amino-6,7-dihydroxy-1,2,3,4-tetrahydronaphthalene hydrobromide]
IC50 (human A3G (APOBEC3G); [3]): 0.7 µM
IC50 (HIV-1 RNase H; [4]): > 25 µM
IC50 [1, 5]: > 200 µM
IC50 (human A3A (APOBEC3A); [6]): > 200 µM

Oc1cc2c(cc1O)C(c1ccccc1)CNCC2 (racemic) [MN15, (±)-SKF-38393 hydrochloride]
IC50 (human A3G (APOBEC3G); [3]): 27 µM
IC50 [1, 5]: > 200 µM
IC50 (human A3A (APOBEC3A); [6]): > 200 µM

NC(Cc1cc(O)c(O)cc1O)C(=O)O (racemic) [MN23, 6-Hydroxy-DL-DOPA]
inhibition of A3G catalytic activity (in words) (human A3G (APOBEC3G)): inhibit A3G catalytic activity
IC50 (human A3G (APOBEC3G); [3]): 4 µM
IC50 [1, 5]: > 200 µM
inhibition of A3A (in words) (human A3A (APOBEC3A)): inhibit A3A

CC(N)(Cc1ccc(O)c(O)c1)C(=O)O (racemic) [MN28, (±)–3-(3,4-Dihydroxyphenyl)-2-methyl-DL-alanine]
IC50 (human A3G (APOBEC3G); [3]): 13 µM
IC50 (HIV-1 RNase H; [4]): > 25 µM
IC50 [1, 5]: > 200 µM
IC50 (human A3A (APOBEC3A); [6]): > 200 µM

O=C(O)c1ccc(-c2cccc(/C=N/NC(=O)c3cc(O)c(O)c(O)c3)c2)cc1 [BHMP-07, reference compound]
IC50 (HIV RNase H; published value): 0.1 µM
IC50 (human A3G (APOBEC3G); [3]): 13 µM

O=C(/C=C/c1ccc(O)c(O)c1)OCCc1ccccc1 [CAPE, caffeic acid phenethyl ester, reference compound]
IC50 (human A3G (APOBEC3G)): > 100 µM
inhibition of A3G catalytic activity (in words) (human A3G (APOBEC3G)): no significant effect
inhibition of A3A (in words) (human A3A (APOBEC3A)): no significant effect

O=C(/C=C/c1ccc(O)c(O)c1)O[C@@H]1C[C@](O)(C(=O)O)C[C@@H](O)[C@H]1O [Chlorogenic acid, reference compound]
IC50 (human A3G (APOBEC3G)): > 100 µM
inhibition of A3G catalytic activity (in words) (human A3G (APOBEC3G)): no effect

O=C(NN=Cc1c(O)ccc2ccccc12)c1cc(O)c(O)c(O)c1 [KMMP-02 (THBNH), reference compound]
IC50 (HIV RNase H; ref M. Parniak, unpublished): 0.2 µM
IC50 (human A3G (APOBEC3G); [3]): > 100 µM

COc1ccc2ccccc2c1/C=N/NC(=O)c1ccc(O)c(O)c1 [KMMP-05 (DHBNH), reference compound]
IC50 (HIV RNase H; published value): 0.5 µM
IC50 (human A3G (APOBEC3G); [3]): > 100 µM

O=C(/C=C/c1ccc(O)c(O)c1)O[C@@H](C(=O)O)[C@@H](OC(=O)/C=C/c1ccc(O)c(O)c1)C(=O)O [L-Chicoric Acid, reference compound]
inhibition of A3G catalytic activity (in words) (human A3G (APOBEC3G)): inhibited
IC50 (human A3G (APOBEC3G); [3]): 2.8 µM
inhibition of A3A (in words) (human A3A (APOBEC3A)): inhibited

O=C(O)[C@H](O)[C@@H](O)C(=O)O [L-Tartaric Acid, reference compound]
IC50 (human A3G (APOBEC3G)): > 100 µM
inhibition of A3G catalytic activity (in words) (human A3G (APOBEC3G)): no effect

O=C(O)C1=CC(=C(c2ccc(O)c(C(=O)O)c2)c2ccc(O)c(C(=O)O)c2)C=CC1=O [MN1, Aurintricarboxylic acid]
IC50 (human A3G (APOBEC3G)): 0.49 µM
IC50 [1]: 15 µM
inhibition of UDG activity (in words) [1]: blocked UDG activity

CN1CCc2cccc3c2[C@H]1Cc1ccc(O)c(O)c1-3 [MN2, R-(−)-Apomorphine hydrochloride hemihydrate]
IC50 (human A3G (APOBEC3G)): 1.3 µM
IC50 (HIV-1 RNase H): > 25 µM
IC50 [1]: > 200 µM
IC50 (HIV-1 integrase): > 25 µM
IC50 (human A3A (APOBEC3A)): > 200 µM

CC(=O)NCCc1ccc(O)c(O)c1 [MN3, N-Acetyldopamine monohydrate]
IC50 (human A3G (APOBEC3G); [3]): 0.45 µM
IC50 (human A3A (APOBEC3A); [6]): > 200 µM

O=C1C=CC(=O)C=C1 [MN4, p-Benzoquinone]
IC50 (human A3G (APOBEC3G); [3]): 0.17 µM
IC50 (human A3A (APOBEC3A); [6]): > 200 µM

O=C(O)/C=C/c1ccc(O)c(O)c1 [MN5, Caffeic acid]
IC50 (human A3G (APOBEC3G)): 85 µM
IC50 [1]: > 200 µM
IC50 (human A3A (APOBEC3A)): > 200 µM

O=C(O)c1cc[c]([Hg][Cl])cc1 [MN6, 4-Chloromercuribenzoic acid]
IC50 (human A3G (APOBEC3G); [3]): 0.13 µM
IC50 (human A3A (APOBEC3A); [6]): 0.26 µM

CC(=O)OCC1=C(C(=O)O)N2C(=O)[C@@H](NC(=O)CSc3ccncc3)[C@H]2SC1 [MN7, Cephapirin sodium salt]
IC50 (human A3G (APOBEC3G)): 7.5 µM
IC50 (human A3A (APOBEC3A)): 12 µM

C[C@@](Cc1ccc(O)c(O)c1)(NN)C(=O)O [MN9, S-(−)-Carbidopa]
IC50 (human A3G (APOBEC3G)): 5.3 µM
IC50 (human A3A (APOBEC3A)): > 200 µM

O=C(O)Cc1ccc(O)c(O)c1 [MN12, 3,4-Dihydroxyphenylacetic acid]
IC50 (human A3G (APOBEC3G)): 19 µM
IC50 [1]: > 200 µM
IC50 (human A3A (APOBEC3A)): > 200 µM

CCCN1CCc2cccc3c2[C@H]1Cc1ccc(O)c(O)c1-3 [MN14, R(−)-Propylnorapomorphine hydrochloride]
IC50 (human A3G (APOBEC3G); [3]): 6.4 µM
IC50 (human A3A (APOBEC3A); [6]): > 200 µM

CN1CCc2cc(O)cc3c2[C@H]1Cc1ccc(O)c(O)c1-3 [MN16, R(−)-2,10,11-Trihydroxyaporphine hydrobromide]
IC50 (human A3G (APOBEC3G); [3]): 1.7 µM
IC50 (HIV-1 RNase H; [4]): > 25 µM
IC50 [1, 5]: > 200 µM
IC50 (human A3A (APOBEC3A); [6]): > 200 µM

CCCN1CCc2cc(O)cc3c2[C@H]1Cc1ccc(O)c(O)c1-3 [MN17, R(−)-2,10,11-Trihydroxy-N-propylnoraporphine hydrobromide hydrate]
IC50 (human A3G (APOBEC3G); [3]): 13 µM
IC50 (human A3A (APOBEC3A); [6]): > 200 µM

Oc1ccc(O)cc1 [MN21, Hydroquinone]
IC50 (human A3A (APOBEC3A)): > 200 µM

Oc1ccc(Cn2cc[nH]c2=S)cc1 [MN22, 1-(4-Hydroxybenzyl)imidazole-2-thio]
IC50 [1, 5]: > 200 µM
IC50 (human A3A (APOBEC3A); [6]): > 200 µM

O=c1cc(O)cc(/C=C/c2ccc(O)c(O)c2)o1 [MN24, Hispidin]
IC50 (human A3G (APOBEC3G)): 2 µM
inhibitory activity against RNase H (in words) (HIV-1 RNase H): modest micromolar inhibitory activity
IC50 [1]: > 200 µM
IC50 (HIV-1 integrase): > 25 µM
IC50 (human A3A (APOBEC3A)): > 200 µM

CN[C@@H](C)[C@H](O)c1ccccc1 [MN25, (1R,2S)-(−)-Ephedrine]
IC50 (human A3G (APOBEC3G); [3]): 1.3 µM
IC50 (human A3A (APOBEC3A); [6]): 54 µM

OC[C@H]1O[C@H]([S-])[C@H](O)[C@@H](O)[C@@H]1O.[Au+] [MN26, Aurothioglucose hydrate]
IC50 (human A3G (APOBEC3G); [3]): 0.36 µM
IC50 [1, 5]: > 200 µM
IC50 (human A3A (APOBEC3A); [6]): > 200 µM

O=c1c(O)c(-c2cc(O)c(O)c(O)c2)oc2cc(O)cc(O)c12 [MN27, Myricetin]
IC50 (human A3G (APOBEC3G)): 3.4 µM
inhibition of A3G catalytic activity (in words) (human A3G (APOBEC3G)): inhibit A3G catalytic activity
IC50 [1]: > 200 µM
inhibition of A3A (in words) (human A3A (APOBEC3A)): inhibit A3A

CC(Cc1ccc(O)c(O)c1)C(C)Cc1ccc(O)c(O)c1 (stereo not shown) [MN31, Nordihydroguaiaretic acid]
IC50 (human A3G (APOBEC3G); [3]): 8.8 µM
IC50 (human A3A (APOBEC3A); [6]): > 200 µM

Oc1cc(O)cc(/C=C/c2ccc(O)c(O)c2)c1 [MN32, Piceatannol]
inhibition of A3A-loop 6 deaminase activity [2]: very little inhibition
IC50 (human A3G (APOBEC3G)): 1.8 µM
IC50 (HIV-1 RNase H): 0.39 µM
IC50 [1]: > 200 µM
IC50 (HIV-1 integrase): > 25 µM
IC50 (human A3A (APOBEC3A)): 200 µM

Cc1nc(N=Nc2cc(S(=O)(=O)O)c3cc([N+](=O)[O-])cc(S(=O)(=O)O)c3c2)c(COP(=O)(O)O)c(C=O)c1O [MN33, PPNDS tetrasodium]
IC50 (human A3G (APOBEC3G); [3]): 5.6 µM
IC50 (human A3A (APOBEC3A); [6]): 3.3 µM

CN=c1nc(-c2ccccc2)n(-c2ccccc2)s1 [MN34, SCH-202676 hydrobromide]
IC50 (human A3G (APOBEC3G); [3]): 29 µM
IC50 [1, 5]: > 200 µM
IC50 (human A3A (APOBEC3A); [6]): 310 µM

Br.Oc1ccc(C2CNCc3sccc32)cc1O (stereo not shown) [MN35, SKF-89626 hydrobromide]
inhibition of A3G's ssDNA binding activity (A3G-ssDNA complex formation) (A3G-ssDNA complex): only exceptions
IC50 (human A3G (APOBEC3G); [3]): 1.3 µM
inhibitory activity against RNase H (in words) (HIV-1 RNase H): modest micromolar inhibitory activity
IC50 (HIV-1 RNase H; [4]): 2.2 µM
IC50 [1, 5]: > 200 µM
IC50 (human A3A (APOBEC3A); [6]): > 200 µM

O=C(O)[C@]1(O)C[C@@H](O)[C@@H](O)[C@H](O)C1 [Quinic Acid, reference compound]
IC50 (human A3G (APOBEC3G)): > 100 µM
inhibition of A3G catalytic activity (in words) (human A3G (APOBEC3G)): no effect

CC(C)c1ccc(O)c(=O)c(O)c1 [β-Thujaplicinol, reference compound]
IC50 (HIV RNase H; published value): 0.21 µM
IC50 (human A3G (APOBEC3G)): > 100 µM

Manicol [reference compound]
IC50 (HIV RNase H; published value): 0.6 µM
IC50 (human A3G (APOBEC3G); [3]): > 100 µM

R(−)-N-Allylnorapomorphine hydrobromide [MN11]
IC50 (human A3G (APOBEC3G); [3]): 2.9 µM
IC50 (human A3A (APOBEC3A); [6]): > 200 µM
